# Read-outs that look alike come from different tables or passages of the source.
# Assays:
# [1] = Cytotoxicity MTT assay in MRC5 cells; type: cell-based, human; conditions: human, tetrazolium assay, read-out: CC50 (95% CL)
# Procedure: The cytotoxicity of the test materials to two human cell lines was evaluated using an MTT assay described previously by Morgan. In brief, a 10× stock solution of MTT was prepared by adding 5 mg/mL MTT in phosphate-buffered saline (PBS) (pH 7.4). The stock solution was sterile-filtered and stored at −20°C. HeLa and MRC5 cells were seeded onto 96-well culture plates at a density of 3 × 10^4 cells per well for 1 day. The culture medium was removed and the plates with monolayer cells were replaced with media containing several different concentrations (1–1000 μg/mL) of the test materials in dimethylsulfoxide (DMSO). After incubation at 37°C and 5% CO2 for 2 days, the culture plates were then washed once with 200 μL PBS. A volume of 100 μL medium containing 0.05% MTT were added to each well and then incubated for 4 h at the same condition. After then, MTT solution was removed and 150 μL DMSO was added to each well. Finally, the plate was shaken for 15 min to dissolve the purple formazan crystals that had formed. Absorbance was read at 560 nm by using a VersaMax microplate reader (Molecular Devices, Sunnyvale, CA) with a reference absorbance at 670 nm.
# The CC50 and IC50 values were determined using GraphPad Prism 5 software program (GraphPad Software, La Jolla, CA). […] The selectivity index (SI) was determined as the ratio of CC50 to IC50 [23]. All data represent the mean ± SD of duplicate or triplicate samples of three independent experiments. […] Data from two groups were analyzed by a Student’s t-test, and multiple groups were analyzed by a one-way analysis of variance and Bonferroni multiple comparison post-test.
# [2] = tested on: HRV-4 particles; test: Infectivity of HRV-4 particles (preincubation of virus); type: cell-based, human rhinovirus; conditions: MRC5 cells, 2 days; for inhibition at 100 µg/mL / inhibition at 20 µg/mL: Human rhinovirus sp.
# Procedure: The effects of the test compounds on the infectivity of HRV-4 particles were elucidated as described previously by Choi et al.. […] HRV-4 was preincubated with 100 μg/mL PA, 20 μg/mL PGG, or 100 μg/mL ribavirin for 1 h at 4°C. Monolayers of MRC5 cells were infected with the pretreated or untreated HRV-4 for 1 h at 37°C. Unbound virus was removed by washing the wells with PBS twice, and then cells were incubated in fresh medium supplemented with or without test compounds at 37°C. After 2 days, MTT test and antiviral activity were carried out as stated previously.
# [3] = tested on: HRV-2; test: Virus titration assay, HRV-2 in MRC5 cultures; type: cell-based, human rhinovirus; conditions: PGG 20 μg/mL, PA 100 μg/mL, ribavirin 100 μg/mL; for Log (TCID50/mL) ± SE HRV-2: infected MRC5 cultures, 48 h, infected untreated control 3.93; for Reduction of virus replication (Log (TCID50/mL)) ± SE HRV-2: vs infected untreated control
# Procedure: (§1) Virus titers in infected MRC-5 cultures treated with PA and PGG were measured as TCID50 using MTT-based titration method. In brief, MRC5 cells were seeded at 10^5 cells/mL in a 6-well plate. After 24 h, the cell monolayers were treated with 100 μg/mL PA or 20 μg/mL PGG and infected with HRV-2 or HRV-4 in a concentration of 10×TCID50/mL. Uninfected untreated and infected untreated cultures were included in the assay. The 100 μg/mL of ribavirin was used as a reference control. After 48 h incubation at 37°C, the cultures were frozen and thawed at −80°C/25°C. Cell debris was removed by centrifugation (2000 rpm) and the virus supernatants were collected. Virus titration was then performed in HeLa cell cultures. Initially, a 1:10 dilution of each supernatant was prepared followed by 10 serial 2-fold-dilutions, and added to HeLa cell monolayers. After 48 h, cell mortality was measured using an MTT assay stated previously. Graphs were built by plotting dead cell percentages toward virus dilution factors of each virus supernatant. The 50% infectivity point was calculated through a linear regression analysis of the curve.
# [4] = tested on: HRV-4; test: Virus titration assay, HRV-4 in MRC5 cultures; type: cell-based, human rhinovirus; conditions: PGG 20 μg/mL, PA 100 μg/mL, ribavirin 100 μg/mL; for Log (TCID50/mL) ± SE HRV-4: infected MRC5 cultures, 48 h, infected untreated control 3.81; for Reduction of virus replication (Log (TCID50/mL)) ± SE HRV-4: vs infected untreated control
# Procedure: as §1
# [5] = tested on: HRV-4; test: Cytopathic effect inhibition assay (MTT), HRV-4 in MRC5 cells; type: cell-based, human rhinovirus; conditions: read-out: IC50 (95% CL) HRV-4
# Procedure: (§2) Monolayers of HeLa and MRC5 cells were seeded onto a 96-well culture plate as stated previously. Subsequently, 90 μL media containing several different concentrations (1–1000 μg/mL) of each test material in DMSO was put into the wells, and then 10 μL of 10×TCID50 of the virus stock was added to produce an appropriate CPE within 2 days after infection. Ribavirin served as a reference control and was similarly prepared. Negative controls consisted of the DMSO solution. Viral inhibition rate (VIR) (%) was calculated according to the formula [21], VIR = (A tV—A cV)/(A cd—A cV) × 100, where A tV is the optical density measured with a given concentration of the test compound in HRV infected cells; A cV is the optical density measured for the control untreated HRV infected cells; A cd is the optical density measured for the control untreated HRV uninfected cells.
# (§3) The CC50 and IC50 values were determined using GraphPad Prism 5 software program (GraphPad Software, La Jolla, CA). […] The selectivity index (SI) was determined as the ratio of CC50 to IC50 [23]. All data represent the mean ± SD of duplicate or triplicate samples of three independent experiments. Statistical analyses were carried out using SAS 9.13 program (SAS Institute, Cary, NC). Data from two groups were analyzed by a Student’s t-test, and multiple groups were analyzed by a one-way analysis of variance and Bonferroni multiple comparison post-test.
# [6] = tested on: HRV-2; test: Cytopathic effect inhibition assay (MTT), HRV-2 in HeLa cells; type: cell-based, human rhinovirus; conditions: read-out: IC50 (95% CL) HRV-2
# Procedure: as §2, §3
# [7] = tested on: HRV-2; test: Cytopathic effect inhibition assay (MTT), HRV-2 in MRC5 cells; type: cell-based, human rhinovirus; conditions: read-out: IC50 (95% CL) HRV-2
# Procedure: as §2, §3
# [8] = tested on: two HRVs (HRV-2 and HRV-4); test: Cytopathic effect inhibition assay, summary over both serotypes; type: cell-based, human rhinovirus; conditions: Rhinovirus A; range over HRV-2 and HRV-4, HeLa and MRC5 cells; read-out: IC50 toward two HRVs (range)
# Procedure: as §2, §3
# [9] = HRV4, 48 h, 100 μg/mL PA, 20 μg/mL PGG, 100 μg/mL ribavirin, read-out: inhibition rate, continuous presence during infection
# [10] = HRV4, virus preincubated 1 h at 4°C with 100 μg/mL PA, 20 μg/mL PGG or 100 μg/mL ribavirin, read-out: inhibition rate, preincubation of HRV-4 particles
# [11] = Human rhinovirus sp., HRV4, MRC5, HRV-4 in MRC5 cells
# [12] = Rhinovirus A, HRV2, MRC5, HRV-2 in MRC5 cells
"IC50 ([6]; Rhinovirus A, HRV2, HeLa)",IC50 [6],Structure (SMILES),CC50 at 2 days [1],"inhibition at 100 µg/mL [2, 9]","inhibition at 100 µg/mL [2, 10]",reduction of the HRV-2 titer [3],Log (TCID50/mL) ± SE HRV-2 [3],Reduction of virus replication (Log (TCID50/mL)) ± SE HRV-2 [3],reduction of the HRV-4 titer [4],Log (TCID50/mL) ± SE HRV-4 [4],Reduction of virus replication (Log (TCID50/mL)) ± SE HRV-4 [4],IC50 ([5]; HRV-4 in MRC5 cells),"IC50 [5, 11]",IC50 ([7]; HRV-2 in MRC5 cells),"IC50 [7, 12]",IC50 [8],"inhibition rate, preincubation of HRV-4 particles ([2]; virus preincubated 1 h at 4°C with 100 μg/mL PA, 20 μg/mL PGG or 100 μg/mL ribavirin)","inhibition at 20 µg/mL [2, 9]","inhibition at 20 µg/mL [2, 10]"
608 µM,608 µM,"COc1ccc(C(C)=O)c(O)c1 [PA, paeonol]",3140 µM,57.2%,10.6%,22.4%,3.05 ± 0.046 b Log (TCID50/mL),0.88 ± 0.046 Log (TCID50/mL),27.6%,2.76 ± 0.024 b Log (TCID50/mL),1.05 ± 0.023 Log (TCID50/mL),492 µM,492 µM,503 µM,503 µM,492 to 608 µM,–,–,–
304 µM,304 µM,"NC(=O)c1ncn([C@@H]2O[C@H](CO)[C@@H](O)[C@H]2O)n1 [Ribavirin, reference compound]",2230 µM,58.2%,–,30.3%,2.74 ± 0.020 a Log (TCID50/mL),1.19 ± 0.020 Log (TCID50/mL),36.0%,2.44 ± 0.024 a Log (TCID50/mL),1.37 ± 0.023 Log (TCID50/mL),–,312 µM,240 µM,240 µM,240 to 324 µM,10.0%,–,–

Structure (SMILES),"IC50 ([6]; Rhinovirus A, HRV2, HeLa)",IC50 [6],CC50 at 2 days [1],"inhibition at 100 µg/mL [2, 9]","inhibition at 100 µg/mL [2, 10]",reduction of the HRV-2 titer [3],Log (TCID50/mL) ± SE HRV-2 [3],Reduction of virus replication (Log (TCID50/mL)) ± SE HRV-2 [3],reduction of the HRV-4 titer [4],Log (TCID50/mL) ± SE HRV-4 [4],Reduction of virus replication (Log (TCID50/mL)) ± SE HRV-4 [4],IC50 ([5]; HRV-4 in MRC5 cells),"IC50 [5, 11]",IC50 ([7]; HRV-2 in MRC5 cells),"IC50 [7, 12]",IC50 [8],"inhibition rate, preincubation of HRV-4 particles ([2]; virus preincubated 1 h at 4°C with 100 μg/mL PA, 20 μg/mL PGG or 100 μg/mL ribavirin)","inhibition at 20 µg/mL [2, 9]","inhibition at 20 µg/mL [2, 10]"
"O=C(OC[C@H]1O[C@@H](OC(=O)c2cc(O)c(O)c(O)c2)[C@H](OC(=O)c2cc(O)c(O)c(O)c2)[C@@H](OC(=O)c2cc(O)c(O)c(O)c2)[C@@H]1OC(=O)c1cc(O)c(O)c(O)c1)c1cc(O)c(O)c(O)c1 [PGG, 1,2,3,4,6-penta-O-galloyl-β-D-glucopyranose]",11.6 µM,11.6 µM,108 µM,–,–,17.3%,3.25 ± 0.075 b ^b Log (TCID50/mL),0.68 ± 0.075 Log (TCID50/mL),20.7%,3.04 ± 0.038 c Log (TCID50/mL),0.79 ± 0.038 Log (TCID50/mL),17.3 µM,17.3 µM,17.9 µM,17.9 µM,11.6 to 17.9 µM,–,54.5%,11.2%

# From publication PMC4393083, “Antiviral Activity and Possible Mechanism of Action of Constituents Identified in Paeonia lactiflora Root toward Human Rhinoviruses” (PLoS ONE, 2015)
